Test results reported in patent US11944623B2, “Modulators of Kv3 channels to treat pain” (Autifony Therapeutics Limited, priority 2015, dated 2024).

Target: T1, human Kv3.3 channels (Homo sapiens, UniProt Q14003)
T1 construct: expressed in transfected cells
T1 sequence (Q14003 1-757): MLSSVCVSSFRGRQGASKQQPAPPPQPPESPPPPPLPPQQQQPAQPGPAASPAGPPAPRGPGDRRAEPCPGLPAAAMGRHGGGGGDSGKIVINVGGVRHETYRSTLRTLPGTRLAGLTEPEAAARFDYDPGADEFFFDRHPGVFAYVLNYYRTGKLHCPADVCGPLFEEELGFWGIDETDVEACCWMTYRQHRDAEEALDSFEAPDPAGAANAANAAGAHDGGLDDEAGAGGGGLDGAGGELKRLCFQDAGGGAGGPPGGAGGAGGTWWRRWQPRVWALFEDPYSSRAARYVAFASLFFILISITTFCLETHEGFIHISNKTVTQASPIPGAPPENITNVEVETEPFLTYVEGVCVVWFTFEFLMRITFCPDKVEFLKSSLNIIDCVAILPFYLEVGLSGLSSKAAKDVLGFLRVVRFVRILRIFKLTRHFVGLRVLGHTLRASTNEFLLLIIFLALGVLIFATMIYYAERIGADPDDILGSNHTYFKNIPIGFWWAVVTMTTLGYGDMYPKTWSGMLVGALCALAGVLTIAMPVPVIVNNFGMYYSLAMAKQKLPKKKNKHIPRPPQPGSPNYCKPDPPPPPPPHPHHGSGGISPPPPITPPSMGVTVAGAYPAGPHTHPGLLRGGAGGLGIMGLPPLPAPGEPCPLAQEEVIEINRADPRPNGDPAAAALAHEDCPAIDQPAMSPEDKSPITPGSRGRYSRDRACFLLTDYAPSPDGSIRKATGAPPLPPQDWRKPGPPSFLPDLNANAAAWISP
Assay: hKv3.3 IonWorks Quattro whole-cell current potentiation assay
Format: cell-based
Details: for mean increase in human Kv3.3 peak current at 0 mV: 12.5 micromolar; for EC50: read-out: pEC50 for Kv3.3 (converted)
Description: The ability of the compounds of the invention to modulate the voltage-gated potassium channel subtypes Kv3.3/Kv3.2/Kv3.1 may be determined using the following assay. Analogous methods may be used to investigate the ability of the compounds of the invention to modulate other channel subtypes.
To assess compound effects on human Kv3.3 channels (hKv3.3), a stable cell line expressing human Kv3.3 channels was created by transfecting Chinese Hamster Ovary (CHO)-K1 cells with a pBacMire_KCNC-3 vector. Cells were cultured in DMEM/F12 (Gibco) supplemented with 10% Foetal Bovine Serum (Gibco), 1× non-essential amino acids (Invitrogen) and geneticin (G418) 400 microg/mL. Cells were grown and maintained at 37° C. in a humidified environment containing 5% CO2 in air.
The day of the experiment, cells were removed from the incubator and the culture medium removed. Cells were washed with 5 ml of Dulbecco's PBS (DPBS) calcium and magnesium free and detached by the addition of 3 ml Versene (Invitrogen, Italy) followed by a brief incubation at 37° C. for 5 minutes. The flask was tapped to dislodge cells and 10 ml of DPBS containing calcium and magnesium was added to prepare a cell suspension. The cell suspension was then placed into a 15 ml centrifuge tube and centrifuged for 2 min at 1200 rpm. After centrifugation, the supernatant was removed and the cell pellet re-suspended in 4 ml of DPBS containing calcium and magnesium using a 5 ml pipette to break up the pellet. Cell suspension volume was then corrected to give a cell concentration for the assay of approximately 3 million cells per ml.
Experiments were conducted at room temperature using IonWorks Quattro™ planar array electrophysiology technology (Molecular Devices Corp.) with PatchPlate™ PPC. Stimulation protocols and data acquisition were carried out using a microcomputer (Dell Pentium 4). Planar electrode hole resistances (Rp) were determined by applying a 10 mV voltage step across each well. These measurements were performed before cell addition. After cell addition and seal formation, a seal test was performed by applying a voltage step from −80 mV to −70 mV for 160 ms. Following this, amphotericin-B solution was added to the intracellular face of the electrode to achieve intracellular access. Cells were held at −70 mV. Leak subtraction was conducted in all experiments by applying 50 ms hyperpolarizing (10 mV) prepulses to evoke leak currents followed by a 20 ms period at the holding potential before test pulses. For hKv3.2 and hKv3.1 assays, from the holding potential of −70 mV, a first test pulse to −15 mV was applied for 100 ms and following a further 100 ms at −70 mV, a second pulse to 40 mV was applied for 50 ms. Cells were then maintained for a further 100 ms at −100 mV and then a voltage ramp from −100 mV to 40 mV was applied over 200 ms. For hKv3.3 assays, from the holding potential of −70 mV, a first test pulse to 0 mV was applied for 500 ms and following a further 100 ms at −70 mV, a second pulse to 40 mV was applied for 200 ms. These longer test pulses were used to study inactivation of hKv3.3 channels.
Test pulses protocol may be performed in the absence (pre-read) and presence (post-read) of the test compound. Pre- and post-reads may be separated by the compound addition followed by a 3-minute incubation.
The intracellular solution contained the following (in mM): K-gluconate 100, KCl 54, MgCl2 3.2, HEPES 5, adjusted to pH 7.3 with KOH. Amphotericin-B solution was prepared as 50 mg/ml stock solution in DMSO and diluted to a final working concentration of 0.1 mg/ml in intracellular solution. The external solution was Dulbecco's Phosphate Buffered Saline (DPBS) and contained the following (in mM): CaCl2 0.90, KCl 2.67, KH2PO4 1.47, MgCl·6H2O 0.493, NaCl 136.9, […] 8.06, with a pH of 7.4. […]

CC[C@@]1(C)NC(=O)N(c2cnc(Oc3ccc(C)c(OC(F)(F)F)c3)nc2)C1=O [Compound 2, (5R)-5-ethyl-5-methyl-3-[2-({4-methyl-3-[(trifluoromethyl)oxy]phenyl}oxy)-5-pyrimidinyl]-2,4-imidazolidinedione]
mean increase in human Kv3.3 peak current at 0 mV: 113%
EC50: 11.7 µM

CC[C@H]1NC(=O)N(c2ccc(Oc3ccc(C)c4c3C3(CC3)CO4)nc2)C1=O [Compound 4, (5R)-5-ethyl-3-[6-(7-methylspiro[2H-benzofuran-3,1′-cyclopropane]-4-yl)oxy-3-pyridyl]imidazolidine-2,4-dione]
mean increase in human Kv3.3 peak current at 0 mV: 365%

Cc1ccc(Oc2ccc(-n3c(C)n[nH]c3=O)cn2)c2c1OCC21CC1 [Compound 3, 5-methyl-4-{6-[(7-methylspiro[1-benzofuran-3,1′-cyclopropan]-4-yl)oxy]pyridin-3-yl}-2,4-dihydro-3H-1,2,4-triazol-3-one]
EC50: 17.4 µM

Cc1ccc(Oc2ncc(N3C(=O)NC(C)(C)C3=O)cn2)c2c1OCC21CC1 [Compound 1, 5,5-dimethyl-3-[2-(7-methylspiro[2H-benzofuran-3,1′-cyclopropane]-4-yl)oxypyrimidin-5-yl]imidazolidine-2,4-dione]
mean increase in human Kv3.3 peak current at 0 mV: 192%
EC50: 6.76 µM
